Measured values from patent US20250026752A1, “POSITIVE ALLOSTERIC MODULATORS OF THE MUSCARINIC ACETYLCHOLINE RECEPTOR M4” (Vanderbilt University, priority 2021, published 2025).

Target: T1, human mAChR M4 (Homo sapiens, UniProt P08173)
T1 construct: expressed in transfected cells; host or cells: CHO-K1 (ATCC), stably expressing hM4 and Gqi5
T1 sequence (P08173 1-479): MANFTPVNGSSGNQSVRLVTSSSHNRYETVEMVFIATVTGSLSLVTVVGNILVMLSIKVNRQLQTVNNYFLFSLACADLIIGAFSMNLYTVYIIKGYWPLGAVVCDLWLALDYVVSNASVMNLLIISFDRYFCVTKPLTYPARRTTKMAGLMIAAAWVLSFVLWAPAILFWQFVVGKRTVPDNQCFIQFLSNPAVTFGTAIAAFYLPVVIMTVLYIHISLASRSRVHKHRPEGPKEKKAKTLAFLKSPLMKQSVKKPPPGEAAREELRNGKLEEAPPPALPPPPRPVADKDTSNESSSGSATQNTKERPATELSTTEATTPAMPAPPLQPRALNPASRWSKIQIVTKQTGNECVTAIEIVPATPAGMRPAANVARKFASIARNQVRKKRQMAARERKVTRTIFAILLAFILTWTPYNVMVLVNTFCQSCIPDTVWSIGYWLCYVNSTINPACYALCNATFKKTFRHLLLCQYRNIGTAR
Experiment: mAChR M4 cell-based functional assay: calcium flux (Fluo-4, FDSS), positive allosteric modulator activity on the EC20 acetylcholine response, hM4-Gqi5 CHO-K1 cells
Conditions: for Emax at 30 µM: CHO-K1, human M4, % ACh maximum at 30 μM; for EC50: human M4, PAM activity on EC20 acetylcholine response, calcium flux, read-out: Human M4 EC50
Experimental: Human M4 cDNA, along with the chimeric G protein Gqi5, were transfected into Chinese hamster ovary (CHO-K1) cells purchased from the American Type Culture Collection using commercially available Lipofectamine 2000 transfection reagent (Dalby, B. et al., Methods (2004) 33(2), 95-103). hM4-Gqi5 cells were grown in Ham's F-12 medium containing 10% heat-inactivated fetal bovine serum (FBS), 20 mM […], 50 μg/mL G418 sulfate (CAS #108321-42-2), and 500 μg/mL Hygromycin B. rM4-Gqi5 cells were grown in DMEM containing 10% heat-inactivated FBS, 20 mM HEPES, 400 μg/mL G418 sulfate, and 500 μg/mL Hygromycin B.
For high throughput measurement of agonist-evoked increases in intracellular calcium, CHO-K1 cells stably expressing muscarinic receptors were plated in growth medium lacking G418 sulfate and hygromycin at 15,000 cells/20 μL/well in Greiner 384-well black-walled, tissue culture (TC)-treated, clear-bottom plates (VWR). Cells were incubated overnight at 37° C. and 5% C02. The next day, cells were washed using an ELX 405 (BioTek) with assay buffer; the final volume was then aspirated to 20 μL. Next, 20 μL of a 2.3 μM stock of Fluo-4/acetoxymethyl ester (Invitrogen, Carlsbad, CA), prepared as a 2.3 mM stock in DMSO and mixed in a 1:1 ratio with 10% (w/v) Pluronic F-127 and diluted in assay buffer, was added to the wells and the cell plates were incubated for 50 minutes at 37° C. and 5% C02. Dye was removed by washing with the ELX 405 and the final volume was aspirated to 20 μL. Compound master plates were formatted in an 11 point concentration-response curve (CRC) format (1:3 dilutions) in 100% DMSO with a starting concentration of 10 mM using a BRAVO liquid handler (Agilent). Test compound CRCs were then transferred to daughter plates (240 nL) using the Echo acoustic plate reformatter (Labcyte, Sunnyvale, CA) and then diluted into assay buffer (40 μL) to a 2× stock using a Thermo Fisher Combi (Thermo Fisher Scientific, Waltham, MA).
Calcium flux was measured using the Functional Drug Screening System (FDSS) 6000 or 7000 (Hamamatsu Corporation, Tokyo, Japan) as an increase in the fluorescent static ratio. Compounds were applied to cells (20 μL, 2×) using the automated system of the FDSS at 2-4 seconds into the protocol and the data were collected at 1 Hz. At 144 seconds, 10 μL of an EC20 concentration of the muscarinic receptor agonist acetylcholine was added (5×), followed by the addition of 12 μL of an EC80 concentration of acetylcholine at the 230 second time point (5×). Agonist activity was analyzed as a concentration-dependent increase in calcium mobilization upon compound addition. Positive allosteric modulator activity was analyzed as a concentration-dependent increase in the EC20 acetylcholine response. With the acetylcholine EC20 set as baseline, the test compound EC50 is determined as the concentration that produces an increase above baseline of 50% of the maximum increase in acetylcholine response elicted by the test compound. Antagonist activity was analyzed as a concentration-dependent decrease in the ECso acetylcholine response. Concentration-response curves were generated using a four-parameter logistical equation in XLFit curve fitting software (IDBS, Bridgewater, NJ) for Excel (Microsoft, Redmond, WA) or Prism (GraphPad Software, Inc., San Diego, CA).
Compounds were synthesized as described above. Activity (EC50 and Emax) was determined in the mAChR M4 cell-based functional assay as described above and the data are shown in Table 4. The compound numbers correspond to the compound numbers used in Examples 1-33 and Tables 1, 2, and 3.

Emax at 30 µM [%]	EC50 [nM]	Structure (SMILES)
53	600	Clc1nc(N2CCc3ncc(-c4cnn(C5CC5)c4)cc3C2)c2cccnc2n1 [Compound 34, 2-chloro-4-[3-(1-cyclopropylpyrazol-4-yl)-7,8-dihydro-5H-1,6-naphthyridin-6-yl]pyrido[2,3-d]pyrimidine]
57	610	Cc1ncc(-c2cnc3c(c2)CN(c2nc(Cl)nc4ncccc24)CC3)s1 [Compound 35, 5-[6-(2-chloropyrido[2,3-d]pyrimidin-4-yl)-7,8-dihydro-5H-1,6-naphthyridin-3-yl]-2-methyl-thiazole]
69	650	Cc1ccc(-c2cnc3c(c2)CN(c2nc(Cl)nc4ncccc24)CC3)cn1 [Compound 36, 2-chloro-4-[3-(6-methyl-3-pyridyl)-7,8-dihydro-5H-1,6-naphthyridin-6-yl]pyrido[2,3-d]pyrimidine]
84	60	Cn1nccc1-c1cnc2c(c1)CN(c1ncnc3ccc(Cl)cc13)CC2 [Compound 39, 6-chloro-4-[3-(2-methylpyrazol-3-yl)-7,8-dihydro-5H-1,6-naphthyridin-6-yl]quinazoline]
79	110	Cc1ncc(-c2cnc3c(c2)CN(c2ncnc4ccc(Cl)cc24)CC3)s1 [Compound 40, 5-[6-(6-chloroquinazolin-4-yl)-7,8-dihydro-5H-1,6-naphthyridin-3-yl]-2-methyl-thiazole]
98	60	Cc1nc(N2CCc3ncc(-c4ccnn4C)cc3C2)c2cc(Cl)ccc2n1 [Compound 45, 6-chloro-2-methyl-4-[3-(2-methylpyrazol-3-yl)-7,8-dihydro-5H-1,6-naphthyridin-6-yl]quinazoline]
97	170	Cc1nc(N2CCc3ncc(-c4cnn(C)c4)cc3C2)c2cc(Cl)ccc2n1 [Compound 46, 6-chloro-2-methyl-4-[3-(1-methylpyrazol-4-yl)-7,8-dihydro-5H-1,6-naphthyridin-6-yl]quinazoline]
92	270	Cc1nc(N2CCc3ncc(-c4cnc(C)s4)cc3C2)c2cc(Cl)ccc2n1 [Compound 48, 5-[6-(6-chloro-2-methyl-quinazolin-4-yl)-7,8-dihydro-5H-1,6-naphthyridin-3-yl]-2-methyl-thiazole]
95	290	Cc1ccc(-c2cnc3c(c2)CN(c2nc(C)nc4ccc(Cl)cc24)CC3)cn1 [Compound 51, 6-chloro-2-methyl-4-[3-(6-methyl-3-pyridyl)-7,8-dihydro-5H-1,6-naphthyridin-6-yl]quinazoline]
87	80	Cc1ncc(-c2cnc3c(c2)CN(c2ncnc4cc(F)c(F)cc24)CC3)s1 [Compound 52, 5-[6-(6,7-difluoroquinazolin-4-yl)-7,8-dihydro-5H-1,6-naphthyridin-3-yl]-2-methyl-thiazole]
92	480	Cc1ccc2nc(C)nc(N3CCc4ncc(-c5cnc(C)s5)cc4C3)c2c1 [Compound 55, 5-[6-(2,6-dimethylquinazolin-4-yl)-7,8-dihydro-5H-1,6-naphthyridin-3-yl]-2-methyl-thiazole]
45	1930	Cc1nc(N2CCc3ncc(-c4cnc(C)s4)cc3C2)c2cc(C(F)(F)F)ccc2n1 [Compound 56, 2-methyl-5-[6-[2-methyl-6-(trifluoromethyl)quinazolin-4-yl]-7,8-dihydro-5H-1,6-naphthyridin-3-yl]thiazole]

The next lines start with the molecule.

Structure (SMILES)	Emax at 30 µM [%]	EC50 [nM]
Fc1ccc2ncnc(N3CCc4ncc(-c5ccc(C6CC6)nc5)cc4C3)c2c1 [Compound 37, 4-[3-(6-cyclopropyl-3-pyridyl)-7,8-dihydro-5H-1,6-naphthyridin-6-yl]-6-fluoro-quinazoline]	88	260
Cc1ccc(-c2cnc3c(c2)CN(c2ncnc4ccc(F)cc24)CC3)cn1 [Compound 38, 6-fluoro-4-[3-(6-methyl-3-pyridyl)-7,8-dihydro-5H-1,6-naphthyridin-6-yl]quinazoline]	93	170
CN(C)c1ccc(-c2cnc3c(c2)CN(c2ncnc4ccc(Cl)cc24)CC3)cn1 [Compound 41, 5-[6-(6-chloroquinazolin-4-yl)-7,8-dihydro-5H-1,6-naphthyridin-3-yl]-N,N-dimethyl-pyridin-2-amine]	74	430
Clc1ccc2ncnc(N3CCc4ncc(-c5ccc(C6CC6)nc5)cc4C3)c2c1 [Compound 42, 6-chloro-4-[3-(6-cyclopropyl-3-pyridyl)-7,8-dihydro-5H-1,6-naphthyridin-6-yl]quinazoline]	72	380
Cc1ccc(-c2cnc3c(c2)CN(c2ncnc4ccc(Cl)cc24)CC3)cn1 [Compound 43, 6-chloro-4-[3-(6-methyl-3-pyridyl)-7,8-dihydro-5H-1,6-naphthyridin-6-yl]quinazoline]	79	70
FC(F)(F)c1ccc(-c2cnc3c(c2)CN(c2ncnc4ccc(Cl)cc24)CC3)cn1 [Compound 44, 6-chloro-4-[3-[6-(trifluoromethyl)-3-pyridyl]-7,8-dihydro-5H-1,6-naphthyridin-6-yl]quinazoline]	59	470
Cc1nc(N2CCc3ncc(-c4c(C)noc4C)cc3C2)c2cc(Cl)ccc2n1 [Compound 47, 4-[6-(6-chloro-2-methyl-quinazolin-4-yl)-7,8-dihydro-5H-1,6-naphthyridin-3-yl]-3,5-dimethyl-isoxazole]	99	140
Cc1nc(N2CCc3ncc(-c4ccc(N(C)C)nc4)cc3C2)c2cc(Cl)ccc2n1 [Compound 49, 5-[6-(6-chloro-2-methyl-quinazolin-4-yl)-7,8-dihydro-5H-1,6-naphthyridin-3-yl]-N,N-dimethyl-pyridin-2-amine]	81	1230
Cc1nc(N2CCc3ncc(-c4ccc(C5CC5)nc4)cc3C2)c2cc(Cl)ccc2n1 [Compound 50, 6-chloro-4-[3-(6-cyclopropyl-3-pyridyl)-7,8-dihydro-5H-1,6-naphthyridin-6-yl]-2-methyl-quinazoline]	83	1070
Cc1ccc(-c2cnc3c(c2)CN(c2ncnc4cc(F)c(F)cc24)CC3)cn1 [Compound 53, 6,7-difluoro-4-[3-(6-methyl-3-pyridyl)-7,8-dihydro-5H-1,6-naphthyridin-6-yl]quinazoline]	84	130
Fc1cc2ncnc(N3CCc4ncc(-c5cnn(C6CC6)c5)cc4C3)c2cc1F [Compound 54, 4-[3-(1-cyclopropylpyrazol-4-yl)-7,8-dihydro-5H-1,6-naphthyridin-6-yl]-6,7-difluoro-quinazoline]	85	200
